# Data taken from ChEMBL document CHEMBL1201862, “PubChem BioAssay data set” (2004).
# Calls of active or inactive are those of the source.
# Tests used:
# [1] = target: T1, Rac GTPase-activating protein 1 (Homo sapiens, UniProt Q9H0H5); assay: MgcRacGAP GTPase-activating activity inhibitors, confirmation, biochemical, ADP Hunter fluorescence, primary and confirmatory (AID 624330); assay type: functional
# T1 sequence (Q9H0H5 whole entry): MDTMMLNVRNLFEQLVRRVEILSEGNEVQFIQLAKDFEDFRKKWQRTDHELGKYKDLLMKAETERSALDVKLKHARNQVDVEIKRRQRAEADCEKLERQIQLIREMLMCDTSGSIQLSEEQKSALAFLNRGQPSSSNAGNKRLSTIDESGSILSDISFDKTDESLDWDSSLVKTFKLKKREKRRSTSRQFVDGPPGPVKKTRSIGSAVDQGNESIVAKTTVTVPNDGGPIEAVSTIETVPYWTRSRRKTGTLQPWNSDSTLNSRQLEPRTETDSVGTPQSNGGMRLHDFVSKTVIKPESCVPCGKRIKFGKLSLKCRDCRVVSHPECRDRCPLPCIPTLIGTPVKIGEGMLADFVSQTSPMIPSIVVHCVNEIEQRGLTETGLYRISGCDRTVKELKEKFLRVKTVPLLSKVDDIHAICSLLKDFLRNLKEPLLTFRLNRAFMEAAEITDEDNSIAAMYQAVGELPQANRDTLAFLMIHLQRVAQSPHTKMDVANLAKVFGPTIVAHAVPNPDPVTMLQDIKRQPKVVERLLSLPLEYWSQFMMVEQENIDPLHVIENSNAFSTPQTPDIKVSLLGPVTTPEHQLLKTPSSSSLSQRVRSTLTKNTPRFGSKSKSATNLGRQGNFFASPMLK
# [2] = target: FAD-linked sulfhydryl oxidase ALR (Homo sapiens, UniProt P55789); assay: inhibitors of human ALR sulfhydryl oxidase, dose response, biochemical, H2O2 detection, luminescence, cherry-pick (AID 493248)
# cells [3] = assay type: functional, cell-based
# cells [4] = assay type: functional, cell-based; remark: listed apart in the source
# [5] = cytotoxicity in HEK-293T cells, dose response, cytotoxicity control for TCR NF-kB inhibitor project, luminescence, T-cell screen hits (AID 489026); assay type: functional, cell-based;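 note: cells exposed to compound about 14 hours before the viability readout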
# [6] = target: Induced myeloid leukemia cell differentiation protein Mcl-1 (Homo sapiens, UniProt Q07820); assay type: functional
# [7] = target: T2, Short transient receptor potential channel 4 (Mus musculus, UniProt Q9QUQ5); assay: mouse TRPC4 channel inhibitors, dose response, cell-based, HEK293 TRPC4/mu-opioid, Fluo-4 calcium (AID 434942); assay type: functional;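 note: potency of inhibitors blocking the TRPC4 calcium response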
# T2 sequence (Q9QUQ5 whole entry): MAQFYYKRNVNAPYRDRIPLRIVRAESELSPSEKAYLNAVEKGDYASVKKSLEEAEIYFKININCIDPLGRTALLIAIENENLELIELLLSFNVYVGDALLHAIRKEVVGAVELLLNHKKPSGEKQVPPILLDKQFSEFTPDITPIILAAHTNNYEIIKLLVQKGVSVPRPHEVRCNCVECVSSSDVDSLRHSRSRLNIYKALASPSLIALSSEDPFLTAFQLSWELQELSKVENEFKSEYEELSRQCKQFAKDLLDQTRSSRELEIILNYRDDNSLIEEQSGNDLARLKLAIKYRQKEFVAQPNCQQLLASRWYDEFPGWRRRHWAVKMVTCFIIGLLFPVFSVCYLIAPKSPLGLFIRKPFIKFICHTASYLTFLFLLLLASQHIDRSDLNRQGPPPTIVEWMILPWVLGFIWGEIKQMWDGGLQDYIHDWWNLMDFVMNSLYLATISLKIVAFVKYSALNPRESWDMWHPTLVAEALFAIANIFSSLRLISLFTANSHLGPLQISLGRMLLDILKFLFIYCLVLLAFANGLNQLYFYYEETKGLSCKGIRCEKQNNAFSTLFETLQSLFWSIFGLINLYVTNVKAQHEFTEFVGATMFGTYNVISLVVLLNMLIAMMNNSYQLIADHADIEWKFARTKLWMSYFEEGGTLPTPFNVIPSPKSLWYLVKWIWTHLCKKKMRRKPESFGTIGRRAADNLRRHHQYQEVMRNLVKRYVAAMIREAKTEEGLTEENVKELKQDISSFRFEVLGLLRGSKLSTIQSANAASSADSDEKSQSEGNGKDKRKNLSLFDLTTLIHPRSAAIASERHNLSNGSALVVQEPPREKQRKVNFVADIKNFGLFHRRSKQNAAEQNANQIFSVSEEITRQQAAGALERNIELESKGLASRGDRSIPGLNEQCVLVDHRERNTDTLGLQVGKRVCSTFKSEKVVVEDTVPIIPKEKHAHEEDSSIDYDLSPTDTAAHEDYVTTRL
# [8] = HEp-2 cell cytotoxicity, dose response, cytotoxicity control for RSV inhibitor project, HTS (AID 2410); assay type: functional; conditions: human respiratory syncytial virus
# [9] = microbe, parasite or virus in culture; assay type: functional; conditions: Mycobacterium tuberculosis
# cells [10] = assay type: functional
# [11] = inhibitors of intracellular T. cruzi replication, confirmation, NIH3T3 host cells, beta-gal luminescence (AID 2044); assay type: functional, cell-based;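 note: intracellular parasites grown in NIH/3T3 mouse fibroblasts as host cells; luminescent beta-galactosidase reporter signal from transgenic T. cruzi replicating inside host cells; inhibitors lower the luminescence signal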
# [12] = cytotoxicity toward NIH3T3 fibroblasts, dose response, counter-screen, cell-based, ATP luminescence, mouse fibroblasts (AID 2010); assay type: functional;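 note: cells exposed to compound for about 90 hours before reading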
# [13] = inhibitors of SNCA 5'UTR-driven reporter translation, confirmation, H4 neuroglioma cells, luminescence (AID 1988); assay type: functional, cell-based
# [14] = Luminescence Cell-Based Dose Response HTS to Identify Inhibitors of 5'UTR Stem-Loop Driven Prion Protein mRNA Translation in H4 Neuroglioblastoma Cells. [Related pubchem assays: 1827 (Project Summary), 1813 (Primary HTS)]; assay type: functional
# [15] = inhibitors of firefly luciferase expression or activity, dose response, H4 neuroglioma cells, luminescence (AID 1990); assay type: functional, cell-based
# [16] = Luminescence Cell-Based Dose Retest to Confirm Inhibitors of Cancer Stem Cells. [Related pubchem assays (depositor defined):AID2717, AID2721]; assay type: functional, Homo sapiens; conditions: Homo sapiens
# INS1 = assay: beta cell apoptosis inhibitors, cytokine rescue, dose response, luminescence, retest (AID 449756); assay type: functional, cell-based; conditions: Rattus norvegicus;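 note: cell death triggered by IL-1 beta plus TNF-alpha plus IFN-gamma mixture; protective hits raise ATP signal compared with cytokine alone wells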
# [17] = target: T3, Histone-lysine N-methyltransferase NSD2 (Homo sapiens, UniProt O96028); assay type: biochemical
# T3 sequence (O96028 whole entry): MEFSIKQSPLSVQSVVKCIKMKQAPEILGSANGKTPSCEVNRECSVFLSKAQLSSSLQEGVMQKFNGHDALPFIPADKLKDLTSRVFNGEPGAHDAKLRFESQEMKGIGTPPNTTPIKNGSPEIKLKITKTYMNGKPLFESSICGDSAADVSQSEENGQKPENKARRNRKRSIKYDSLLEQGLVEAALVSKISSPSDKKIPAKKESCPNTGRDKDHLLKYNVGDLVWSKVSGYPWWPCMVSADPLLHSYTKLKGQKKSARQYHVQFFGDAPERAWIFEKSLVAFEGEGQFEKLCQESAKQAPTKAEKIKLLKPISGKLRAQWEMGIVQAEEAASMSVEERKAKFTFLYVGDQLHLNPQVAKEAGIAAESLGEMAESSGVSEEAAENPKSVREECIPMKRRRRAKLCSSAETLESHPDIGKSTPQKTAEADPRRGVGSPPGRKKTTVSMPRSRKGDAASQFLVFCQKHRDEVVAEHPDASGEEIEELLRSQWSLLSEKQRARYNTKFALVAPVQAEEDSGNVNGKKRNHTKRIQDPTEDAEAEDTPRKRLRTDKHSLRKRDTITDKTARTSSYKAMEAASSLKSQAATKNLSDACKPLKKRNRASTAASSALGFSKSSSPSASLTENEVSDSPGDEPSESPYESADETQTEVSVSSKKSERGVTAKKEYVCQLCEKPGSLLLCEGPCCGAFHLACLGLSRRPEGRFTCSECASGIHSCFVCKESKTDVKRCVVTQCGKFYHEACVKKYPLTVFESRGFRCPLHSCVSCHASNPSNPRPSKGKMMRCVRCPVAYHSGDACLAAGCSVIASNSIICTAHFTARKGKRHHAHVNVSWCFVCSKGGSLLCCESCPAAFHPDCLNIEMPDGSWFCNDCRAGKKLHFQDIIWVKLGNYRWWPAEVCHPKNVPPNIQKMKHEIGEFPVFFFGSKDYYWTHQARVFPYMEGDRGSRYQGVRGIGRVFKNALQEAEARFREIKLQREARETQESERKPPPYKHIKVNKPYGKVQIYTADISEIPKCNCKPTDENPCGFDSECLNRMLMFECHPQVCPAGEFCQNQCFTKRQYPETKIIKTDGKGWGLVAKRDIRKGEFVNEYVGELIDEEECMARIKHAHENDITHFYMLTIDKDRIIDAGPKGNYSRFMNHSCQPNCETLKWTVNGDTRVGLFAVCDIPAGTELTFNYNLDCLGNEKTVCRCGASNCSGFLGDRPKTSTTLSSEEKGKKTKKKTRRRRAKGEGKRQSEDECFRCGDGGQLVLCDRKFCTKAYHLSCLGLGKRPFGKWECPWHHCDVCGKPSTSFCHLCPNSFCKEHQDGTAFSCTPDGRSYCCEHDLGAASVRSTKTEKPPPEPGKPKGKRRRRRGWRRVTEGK
# [18] = target: T4, Heat shock factor protein 1 (Mus musculus, UniProt P38532); assay: inhibition of MG132-induced HSE-luciferase signal, confirmation, cell-based, NIH3T3, luminescence, dose retest (AID 2382); assay type: functional;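 note: NIH3T3 fibroblasts with HSF1-driven luciferase reporter stressed by proteasome inhibitor MG132; luminescence from HSF1-driven luciferase expression after 8 hours of MG132 stress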
# T4 sequence (P38532 whole entry): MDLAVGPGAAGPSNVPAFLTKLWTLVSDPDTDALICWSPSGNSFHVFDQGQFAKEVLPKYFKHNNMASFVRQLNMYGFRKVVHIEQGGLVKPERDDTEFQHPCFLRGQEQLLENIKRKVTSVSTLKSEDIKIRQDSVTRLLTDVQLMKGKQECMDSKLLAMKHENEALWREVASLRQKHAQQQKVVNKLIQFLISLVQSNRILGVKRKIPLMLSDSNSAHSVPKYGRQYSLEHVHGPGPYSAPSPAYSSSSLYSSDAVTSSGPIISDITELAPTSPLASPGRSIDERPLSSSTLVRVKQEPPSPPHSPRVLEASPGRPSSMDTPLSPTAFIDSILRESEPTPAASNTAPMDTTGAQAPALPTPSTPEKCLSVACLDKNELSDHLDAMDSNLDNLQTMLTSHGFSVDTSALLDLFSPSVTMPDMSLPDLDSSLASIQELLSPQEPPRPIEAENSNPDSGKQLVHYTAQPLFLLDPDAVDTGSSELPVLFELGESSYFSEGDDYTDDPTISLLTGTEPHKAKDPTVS
# HEK293 [19] = assay: NOD2 signaling inhibitors in MDP-stimulated cells, cell-based, uHTS, luminescence (AID 2001); assay type: functional; conditions: Homo sapiens
# HEK293 [20] = assay: NOD1 signaling inhibitors, primary screen, cell-based, luminescence, uHTS (AID 1578); assay type: functional; conditions: Homo sapiens
# HEK293 [21] = assay: cells; assay type: functional, cell-based; conditions: Homo sapiens
# HEK293 [22] = assay: cells; assay type: functional, cell-based; conditions: Homo sapiens; remark: listed apart in the source
# Chain of FAD-linked sulfhydryl oxidase ALR (P55789 whole entry): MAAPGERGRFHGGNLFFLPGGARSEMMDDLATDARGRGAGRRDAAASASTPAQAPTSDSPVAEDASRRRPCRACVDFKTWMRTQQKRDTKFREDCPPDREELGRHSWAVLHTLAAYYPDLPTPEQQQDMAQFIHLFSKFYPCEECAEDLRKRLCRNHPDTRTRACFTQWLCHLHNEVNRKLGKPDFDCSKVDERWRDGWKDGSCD
# Chain of Induced myeloid leukemia cell differentiation protein Mcl-1 (Q07820 whole entry): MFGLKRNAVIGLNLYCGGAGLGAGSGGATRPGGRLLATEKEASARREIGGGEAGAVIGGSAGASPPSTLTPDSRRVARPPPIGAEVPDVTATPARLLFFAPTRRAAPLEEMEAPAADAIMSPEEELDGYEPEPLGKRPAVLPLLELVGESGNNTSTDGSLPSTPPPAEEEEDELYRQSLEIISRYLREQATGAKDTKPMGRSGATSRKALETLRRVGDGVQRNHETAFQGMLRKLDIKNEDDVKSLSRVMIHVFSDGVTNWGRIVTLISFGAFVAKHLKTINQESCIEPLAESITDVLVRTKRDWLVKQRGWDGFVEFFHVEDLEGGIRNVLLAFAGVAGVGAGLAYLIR
compound,measurement,setting,value
Nc1ccc(N2CCN(c3ccccc3)CC2)c(F)c1,IC50,[1],46.6 µM (active)
same,AC50,[2],13.2 µM (active)
O=C(CSc1nnc(-c2ccncc2)o1)N1CCCCCC1,EC50,cells [3],> 350 µM (not active)
same,EC50,cells [4],> 350 µM (not active)
Cc1c(C(=O)OC2CCCC2)[nH]c2c1C(=O)CC(c1ccco1)C2 (stereo unspecified),IC50,[5],> 80 µM (inactive)
CCS(=O)(=O)N1CCN(C(C)CCc2ccccc2)CC1 (stereo unspecified),IC50,[6],6 µM (not active)
CCN(CC)c1ccc([N+](=O)[O-])c2cccnc12,EC50,[7],10.6 µM (active)
same,CC50,[8],36.7 µM (active)
Cn1c(CNc2ccccc2O)nc2ccccc21,CC50,[9],30.4 µM (active)
same,IC50,cells [10],4.79 µM (active)
Cc1cc(C(=O)NNc2ccccc2F)no1,AC50,[2],5.7 µM (active)
same,EC50,[11],2.26 µM (active)
same,EC50,[12],5.14 µM (active)
Cc1nn(C(=O)c2cccc([N+](=O)[O-])c2)c(C)c1Sc1ccccc1,EC50,[7],2.66 µM (active)
O=C1NC(=S)N/C1=C/c1cccn1-c1ccc([N+](=O)[O-])cc1,IC50,[6],4.63 µM (not active)
COc1ccc(/C=C/CN2CCC(CO)(Cc3ccccc3Cl)CC2)cc1,CC50,[9],32.7 µM (active)
COc1ccc2c(c1)c(C(=O)CN1CCc3ccccc3C1)c(C)n2C,EC50,cells [3],> 350 µM (not active)
same,EC50,cells [4],> 350 µM (not active)
CCOc1ccc(S(=O)(=O)N2c3ccccc3CC2C)cc1 (stereo unspecified),IC50,[5],> 80 µM (inactive)
same,EC50,[13],3.2 µM (active)
same,EC50,[14],7.42 µM (active)
same,EC50,[15],7.65 µM (inconclusive)
COc1cc(-c2noc(C)c2/C=C/c2ccc(OC(C)=O)cc2)cc(OC)c1OC,IC50,[5],52.8 µM (inactive)
same,AC50,[16],0.222 µM (active)
C=C1C(O)[C@@H]2O[C@]3(CC[C@H](/C=C/C(C)[C@@H]4CC(C)=CC5(O[C@H](C[C@@](C)(O)CO)CCC5O)O4)O3)CC[C@H]2O[C@@H]1C(O)CC(C)[C@H]1OC2(CCCCO2)CCC1C (stereo partly specified),IC50,[5],> 80 µM (inactive)
same,AC50,INS1,5.98 µM (active)
CC(C)CCN1CCN(Cc2ccsc2)CC1CCO (stereo unspecified),EC50,[7],4.22 µM (active)
CNCc1ccccc1OCc1ccccc1F,AC50,[17],> 20 µM (inactive)
same,IC50,[6],0.557 µM (active)
COc1ccc(Nc2ncnc3ccc(Br)cc23)c(OC)c1,IC50,[5],> 80 µM (inactive)
same,EC50,[18],0.354 µM (active)
CCC1(C(=O)c2ccccc2)C(c2ccc([N+](=O)[O-])cc2)C1(C(=O)OC)C(=O)OC (stereo unspecified),EC50,[7],4.22 µM (active)
CCCCOc1ccc(CSCCN=C(N)N)cc1,EC50,[7],3.35 µM (active)
O=C(c1[nH]nc2c1CCc1ccccc1-2)N1CCN(Cc2ccc3c(c2)OCO3)CC1,IC50,HEK293 [19],5.11 µM (active)
same,EC50,HEK293 [20],5.4 µM (active)
same,IC50,HEK293 [21],4.07 µM (active)
same,IC50,HEK293 [22],8.27 µM (active)
CCC(=O)N1CCc2cc(S(=O)(=O)NCCC(=O)N3CCN(c4cccc(OC)c4)CC3)ccc21,EC50,cells [3],> 350 µM (not active)
same,EC50,cells [4],> 350 µM (not active)
NC(=O)c1nsc(C(=O)N(Cc2ccco2)C(C(=O)NCC2CCCO2)c2ccc(F)cc2)c1N (stereo unspecified),EC50,[7],10.6 µM (active)
c1ccc2[nH]c(SCc3cn4cccnc4n3)nc2c1,AC50,[2],0.194 µM (active)
